“Also recorded” adds a separate entry of the source. Structures can show the parent of a compound that is named as a salt. Where two headings read alike, the source gives them in different places.
Tests used:
HaCaT cells [1] = assay: cells; conditions: for Phototoxicity classification according to OECD 432 Guide: PIF <2 no phototoxicity, 2-5 probable phototoxicity, >5 phototoxicity, HaCaT NRU
Description: Chlorpromazine (CPZ) and sodium dodecyl sulfate (SDS) served as the positive phototoxic and negative non-phototoxic controls, respectively. […] Therefore, the phototoxicity behavior of the metabolites was studied in parallel with the parent drug.
Concisely, for each compound, two 96-well plates were seeded at a density of 2.0 × 10^4 cells/well. […] All plates were incubated for 1 h in dark conditions. Then, for each sample, in the presence of ice, one plate was irradiated with a non-cytotoxic dose of 5 J/cm^2 UVA (UVA Light), whereas the other was kept in a dark box (Dark). Next, drug solutions were replaced with fresh DMEM medium, and plates were further incubated overnight. Next day, neutral red solution (50 μg/mL) was added into the wells and incubated for 2 h at 37°C. […] Lastly, the absorbance of the plates was read at 550 nm on a Synergy H1 microplate reader. […] Afterwards, photoirritation factor (PIF) values were calculated using the following equation: PIF=IC50 Dark / IC50 UVA Light

HaCaT cells [2] = assay: Alkaline comet assay (nuclear DNA damage and repair); assay type: cell-based; conditions: 100 µM
Description: The comet assay (single-cell gel electrophoresis) was performed as already detailed in [Garcia-Lainez et al. (2018)] in order to detect both single and double strand breaks and alkaline labile sites on nuclear DNA. […] The reference photogenotoxic control of this assay was CPZ (10 μM). Afterwards, one plate was irradiated under 2 J/cm^2 UVA light dose (4 J/cm^2 for DMT-GFT and DMOR-GFT) while the other one was kept in darkness as the negative control. Later, both irradiated and non-irradiated cells were detached from the plates and 100 µL of cell suspension was mixed with 100 µL 1% low melting point agarose solution and loaded onto FLARE® slides. Then, slides were incubated on ice to allow drop jellification. Finally, slides were embedded in a box with lysis buffer to initiate the lysis of cells and incubated overnight at 4°C. Next day, slides were placed in electrophoresis tank filled with 1 L of cold alkaline electrophoresis buffer (0.2 M NaOH, 1 mM EDTA in distilled water and pH ≥ 13). The electrophoresis was run at 21 V (1 V/cm) for 30 min and kept at 4°C. Then, slides were washed twice with MilliQ water and DNA fixation accomplished by a serial dehydration with 70% ethanol and 100% ethanol solutions during 5 min and followed by drying for 2 h at 37°C. Nuclear DNA was stained with a SYBR Gold® bath (1:10,000 in Tris-EDTA buffer) for 30 min at 4°C and slides were kept in darkness until its visualization. Comets (nucleoids and tails) were visualized using a fluorescence microscope (Leica DMI 4000B). DNA damage was quantified by counting and analyzing at least 100 DNA comets. Finally, total comet score (TCS) was obtained with the classification of six DNA damage types ([Møller, 2006]) applying the formula: Cl. 0×0+Cl. 1×1+Cl. 2×2+Cl. 3×3+[Cl. 4×4+Cl. 5×5+Cl. 6×6]/6
Where Cl. is the class of DNA damage according to the visual scoring.
The results are expressed in 1–100 arbitrary units, where class 0 comets are comets with no DNA damage while class 6 comets represent comets with maximum DNA damage. Two-way ANOVA (Analysis of Variance) method was used for the statistical analysis of the data.

[3] = test system: caspase-3/7 activity in HaCaT cells; assay: Caspase 3/7 activity assay (Apo-ONE); assay type: cell-based, human; conditions: after UVA 5 J/cm^2, two concentrations up to about the IC50 under UVA
Description: HaCaT cells were seeded in 96-well plates at a concentration of 2 × 10^5 cell/mL. The next day, cells, in fresh DMEM medium without phenol red, were treated with the compounds at two different concentrations representing 100% and 50% of cell viability according to NRU dose-response curves. After 1 h incubation at 37°C, one plate was irradiated with UVA light (5 J/cm^2) and the other one was kept in dark conditions. Later, plates were incubated for another 24 h at 37°C with fresh DMEM medium. Then, samples were analyzed by the Apo-ONE Homogeneous Caspase-3/7 assay according to the manufacturer’s instructions. Immediately after, the fluorescence was monitored at 0 h and 4 h after the addition of the substrate using Synergy H1 multi-mode microplate reader (excitation at 499 nm and emission at 521 nm). The data was subjected to statistical analysis using the Two-way ANOVA (Analysis of Variance).

[4] = Triplet excited-state quenching by DMBA (laser flash photolysis); assay type: physicochemical; conditions: deaerated acetonitrile, 355 nm laser excitation, DMBA 0.1-10 mM
Description: A pulsed Nd:YAG L52137 V LOTIS TII laser (Sp Lotis Tii, Minsk, Belarus) was used for the excitation at 355 nm. The single pulses were ∼10 ns of duration, and the energy was ∼12 mJ/pulse. Laser flash photolysis (LFP) equipment consisted of a pulsed laser, a 77250 Oriel monochromator, and an oscilloscope DP04054 Tektronix. The output signal from the oscilloscope was transferred to a personal computer for processing. The DMOR-GFT metabolite was dissolved in acetonitrile up to an absorbance of 0.3 at 355 nm. Solutions were deaerated by bubbling nitrogen through the solution during 15 min. The rate constant of triplet excited-state quenching by 1,4-dihydro-1,2-dimethylbenzoic acid (DMBA) was determined using the Stern–Volmer Equation: 1/τ=1/τq+kq DMBA
Where τ and τ q are the lifetime of transient species in the presence and absence of DMBA, respectively. Concentrations between 0.1 and 10 mM were used for DMBA. This compound was prepared through Birch reduction following standard procedures ([Andreu et al., 2011]).

[5] = Singlet oxygen production by time-resolved NIR emission at 1,270 nm; assay type: physicochemical
[6] = Fluorescence emission spectra in different media; assay type: physicochemical; parameters: unit not given here; conditions: excitation at 320 nm
Description: (§1) Absorption spectra were recorded in a JASCO V-760 spectrophotometer using 10 × 10 mm^2 quartz cuvettes at room temperature. […] Fluorescence spectra (λ exc = 320 nm) were recorded using a Synergy H1 multi-mode microplate reader.

[7] = Fluorescence quantum yield of compounds internalized in HaCaT cells; assay type: physicochemical; conditions: inside HaCaT cells, excitation at 320 nm, anthracene as standard
Description: as §1
In parallel, fluorescence quantum yield (ΦF) of the internalized compounds were also determined, by comparison with anthracene as standard (Φ F = 0.27 in ethanol). […]

[8] = Photosensitized lipid peroxidation (TBARS assay); conditions: compound 100 µM, linoleic acid 1 mM in PBS, UVA 15 J/cm^2 vs dark
[9] = biological target: T1, human serum albumin (HSA) (Homo sapiens, UniProt P02768); assay: Photoinduced protein oxidation assay (carbonyl content, DNPH derivatization); conditions: compound 100 µM, HSA 5 mg/mL in PBS, UVA 15 J/cm^2
T1 sequence (P02768 25-609): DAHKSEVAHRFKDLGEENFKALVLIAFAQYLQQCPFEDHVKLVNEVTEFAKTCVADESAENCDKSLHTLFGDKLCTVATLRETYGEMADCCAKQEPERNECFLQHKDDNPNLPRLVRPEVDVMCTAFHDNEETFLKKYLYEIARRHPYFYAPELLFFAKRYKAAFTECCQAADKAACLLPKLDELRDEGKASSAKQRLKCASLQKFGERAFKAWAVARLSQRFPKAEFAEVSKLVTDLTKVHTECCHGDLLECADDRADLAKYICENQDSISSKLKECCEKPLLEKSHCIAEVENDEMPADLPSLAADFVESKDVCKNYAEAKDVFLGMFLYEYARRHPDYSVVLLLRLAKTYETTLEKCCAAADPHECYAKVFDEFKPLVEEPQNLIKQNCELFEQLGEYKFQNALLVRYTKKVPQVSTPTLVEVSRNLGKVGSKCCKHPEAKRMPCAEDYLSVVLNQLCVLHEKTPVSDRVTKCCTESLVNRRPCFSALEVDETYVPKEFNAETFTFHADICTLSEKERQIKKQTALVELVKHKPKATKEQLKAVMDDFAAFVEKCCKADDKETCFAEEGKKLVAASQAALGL

HaCaT cells [10] = assay: Lactate dehydrogenase release assay (CytoTox-ONE); assay type: cell-based, human; conditions: after UVA 5 J/cm^2, concentration near the IC50
Description: Lactate Dehydrogenase activity assay was performed according to the manufacturer´s protocol. Briefly, HaCaT cells were seeded in 96-well plates (2 × 10^5 cell/mL) and incubated for 24 h. Then, after replacement of the medium with fresh no-phenol red DMEM, cells were incubated for 1 h with the compounds in two different concentrations representing 100% and 50% of cell viability according to NRU dose-response curves. Next, one plate was irradiated with UVA light (5 J/cm^2) while the other one was kept in dark conditions. Next day, samples were analyzed by CytoTox-ONE™ Homogeneous Membrane Integrity Assay and a lysis solution (9% weight/volume solution of Triton X-100 in water) was used to determine the maximum amount of LDH present. The fluorescence was measured 10 min after the addition of the substrate using Synergy H1 multi-mode microplate reader (excitation at 560 nm and emission at 590 nm). The percent of LDH release was determined following the following equation: % LDH release=Experimental LDH release/Maximum LDH release x 100

[11] = biological target: T1, human serum albumin (HSA); parameters: purchased Sigma-Aldrich (Madrid, Spain); method as in Tamarit et al., 2021; conditions: GFT 100 µM, HSA 5 mg/mL in PBS, UVA 15 J/cm^2; carbonyl content value of GFT taken from the literature; ref Tamarit et al., 2021; cited from earlier work
[12] = parameters: method as in PMID 30069771; conditions: standard, in ethanol; ref [26]; cited from earlier work
[13] = Homo sapiens, HaCaT, 1 h, read-out: IC50 dark
[14] = Homo sapiens, HaCaT, light or radiation study, 1 h, read-out: IC50 UVA light
[15] = PIF = IC50 Dark / IC50 UVA Light, HaCaT, UVA 5 J/cm^2
[16] = in presence of calf thymus DNA (ctDNA)
[17] = in presence of methyl linoleate (ML)

For `CN(C)CCCN1c2ccccc2Sc2ccc(Cl)cc21` [CPZ, Chlorpromazine hydrochloride, reference compound], the IC50 (HaCaT cells [1]; [13]) was 80 ± 17 µM, the IC50 (HaCaT cells [1]; [14]) was 4 ± 0.9 µM and the “Photoirritant factor (PIF)” value (HaCaT cells [1]; [15]) was 20.
In the case of `COc1cc2ncnc(Nc3ccc(O)c(Cl)c3)c2cc1OCCCN1CCOCC1` [DF-GFT, 4-Defluoro-4-hydroxy gefitinib], the IC50 (HaCaT cells [1]; [13]) is reported as 1020 µM, the IC50 (HaCaT cells [1]; [14]) is reported as 1100 µM and the “Phototoxicity classification according to OECD 432 Guide” value (HaCaT cells [1]) is reported as “non-phototoxic; also recorded: negligible phototoxic activity”. The “Photoirritant factor (PIF)” value (HaCaT cells [1]; [15]) was about 1.
With `COc1cc2ncnc(Nc3ccc(F)c(Cl)c3)c2cc1O` [DMOR-GFT, O-Demorpholinopropyl gefitinib] the IC50 (HaCaT cells [1]; [13]) was 144 ± 6 µM, the IC50 (HaCaT cells [1]; [14]) was 3 ± 0.6 µM and the “Photoirritant factor (PIF)” value (HaCaT cells [1]; [15]) was 48. The “Percentage of DNA damage (comet assay)” value (HaCaT cells [2]; UVA light 5 min (2 J/cm^2)) was “did not promote DNA damage”, the “Percentage of DNA damage (comet assay)” value (HaCaT cells [2]; UVA light 10 min (4 J/cm^2)) was “around 45%” and the “Caspase-3/7 activity (relative change)” value [3] was “concentration dependent activation of caspase-3/7”. The “Rate constant (kq) of triplet excited state quenching by DMBA” value [4] was 1.96 M^−1·s^−1 × 10^9 M^−1·s^−1, the “Singlet oxygen quantum yield (Φ Δ)” value [5] was at most 0.1 and the “Emission (λmax)” value ([6]; in presence of HSA) was 432. For the same molecule, the “Emission (λmax)” value [6, 16] was 448, the “Emission (λmax)” value [6, 17] was 384 and the “Fluorescence quantum yield (ΦF)” value [7] was 0.1. For the same molecule, the “Photosensitized lipid peroxidation (TBARS content)” value [8] was “remarkable enhancement in photosensitized lipid peroxidation comparable to the reference” and the “Protein photooxidation (carbonyl content of HSA)” value (“Protein photooxidation” for short) [9] was “significant oxidative effect towards HSA”.
For `Oc1cc2ncnc(Nc3ccc(F)c(Cl)c3)c2cc1OCCCN1CCOCC1` [DMT-GFT, O-Demethyl gefitinib], the IC50 (HaCaT cells [1]; [13]) was 34 ± 3 µM, the IC50 (HaCaT cells [1]; [14]) was 5 ± 0.1 µM and the “Phototoxicity classification according to OECD 432 Guide” value (HaCaT cells [1]) was “can still be considered phototoxic”. The “Photoirritant factor (PIF)” value (HaCaT cells [1]; [15]) was 7, the “Percentage of DNA damage (comet assay)” value (HaCaT cells [2]; UVA light 10 min (4 J/cm^2)) was “around 54%” and the “Caspase-3/7 activity (relative change)” value [3] was “caspase-3/7 activity was similar between the concentration of 2.5 µM and the concentration corresponding to IC50”. The LDH release (HaCaT cells [10]) was “did not show any effect on the LDH release”, the “Emission (λmax)” value [6, 16] was 450 and the “Emission (λmax)” value [6, 17] was 384. For the same molecule, the “Fluorescence quantum yield (ΦF)” value [7] was 0.04, the “Photosensitized lipid peroxidation (TBARS content)” value [8] was “neither GFT nor DMT-GFT showed detectable changes” and the “Protein photooxidation” value [9] was “did not exhibit any lipid or protein oxidative damage”.
With `COc1cc2ncnc(Nc3ccc(F)c(Cl)c3)c2cc1OCCCN1CCOCC1` [GFT, Gefitinib hydrochloride, reference compound] the “Percentage of DNA damage (comet assay)” value (HaCaT cells [2]; UVA light 5 min (2 J/cm^2)) was “around 72%”, the LDH release (HaCaT cells [10]) was “small but significant percent of LDH-release” and the “Singlet oxygen quantum yield (Φ Δ)” value [5] was at most 0.1. The “Fluorescence quantum yield (ΦF)” value [7] was 0.07 and the “Protein photooxidation” value [11] was “significant oxidative effect towards HSA”.
In the case of `CCCCCCCCCCCCOS(=O)(=O)[O-].[Na+]` [SDS, sodium dodecyl sulfate, reference compound], the “Photoirritant factor (PIF)” value (HaCaT cells [1]) is reported as 1, the IC50 (HaCaT cells [1]; read-out: IC50 UVA light, HaCaT, neutral red uptake, UVA 5 J/cm^2, 1 h incubation with compound) is reported as 136 ± 23 µM and the IC50 (HaCaT cells [1]; read-out: IC50 dark, HaCaT, neutral red uptake, kept in dark, 1 h incubation with compound) is reported as 133 ± 31 µM.
For `c1ccc2cc3ccccc3cc2c1` [anthracene], the “Fluorescence quantum yield (ΦF)” value [12] is listed as 0.27.

— publication PMC10283009, “Cellular photo(geno)toxicity of gefitinib after biotransformation” (Frontiers in Pharmacology, 2023)
